Experimental data taken from PMC9054821, “Molecular basis of antibiotic self-resistance in a bee larvae pathogen” (Nature Communications, 2022).

Target: T1, PamZ (Paenibacillus larvae, UniProt V9W634)
T1 construct: gene ERIC2_c18030; full length, 275 residues; pET28a(+) N-terminal His6-tag with TEV site, tag cut; E. coli BL21-Gold(DE3); monomer
Assay: X-ray crystal structure
Format: binding
Conditions: 1.34 Å; co-substrate bound to the C-terminal GNAT domain only; crystals at pH 4.6, 293 K

T1 sequence (V9W634 entry or part of it): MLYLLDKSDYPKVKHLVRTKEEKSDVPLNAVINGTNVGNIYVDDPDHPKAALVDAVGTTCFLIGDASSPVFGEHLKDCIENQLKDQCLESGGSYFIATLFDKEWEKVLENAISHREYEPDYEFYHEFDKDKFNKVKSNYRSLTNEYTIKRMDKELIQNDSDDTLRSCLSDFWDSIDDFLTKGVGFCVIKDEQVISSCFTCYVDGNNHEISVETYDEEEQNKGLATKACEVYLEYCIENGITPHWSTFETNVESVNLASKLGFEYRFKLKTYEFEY

Compound: CC(=O)SCCNC(=O)CCNC(=O)[C@H](O)C(C)(C)COP(=O)(O)OP(=O)(O)OC[C@H]1O[C@@H](n2cnc3c(N)ncnc32)[C@H](O)[C@@H]1OP(=O)(O)O [acetyl-CoA]
- X-ray crystal structure: We solved the crystal structure of PamZ in complex with acetyl-CoA
